The source of these data is US8524949B2, “Agomelatine hydrohalide complex and preparation method thereof” (Les Laboratories Servier, priority 2009, dated 2013).

This series in a line: Water solubility, HPLC with external standard. Format: physicochemical.

The structures appear in SMILES notation. Values after ≈ are worked out from the molar mass of the structure shown.

Consider `COc1ccc2cccc(CCNC(C)=O)c2c1` [Agomelatine, N-[2-(7-methoxy-1-naphthyl)ethyl]-acetamide], for which the solubility (in general, how much of the substance goes into solution per volume) was determined as 1110 µg/mL (≈ 4.56 mM).
